Reference: PubChem BioAssay AID330 (DTP/NCI, 2004)
Values joined by “and” are separate entries in the source; they are usually repeats but may differ in a detail not shown here. Equal entries are not always repeated. Toxic doses and inconclusive results are not listed. How the source made its calls: active means survival T/C of 150% or more; inactive means T/C below 125% in these data.

Test system: P388 leukemia ip, CD2F1 mice, survival T/C
Assay: NCI In Vivo Anticancer Drug Screen. Data for tumor model P388 Leukemia (intraperitoneal) in CD2F1 (CDF1) mice
Conditions: endpoint: median survival time, higher = longer survival
Method in brief: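 Mice carrying the transplanted tumor received test compound or vehicle. Survival was recorded in each group, and the value is the treated-group measurement divided by that of the vehicle-treated control group.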

[1] = dose: 100.0 mg/kg/injection, schedule: Q01DX001 (ip), vehicle: saline with Tween-80
[2] = dose: 200.0 mg/kg/injection, schedule: Q01DX001 (ip), vehicle: saline with Tween-80
[3] = dose: 400.0 mg/kg/injection, schedule: Q01DX001 (ip), vehicle: saline with Tween-80
[4] = dose: 100.0 mg/kg/injection, schedule: Q01DX001 (ip), vehicle: Klucel (hydroxypropylcellulose) (HPC)
[5] = dose: 200.0 mg/kg/injection, schedule: Q01DX001 (ip), vehicle: Klucel (hydroxypropylcellulose) (HPC)
[6] = dose: 50.0 mg/kg/injection, schedule: Q01DX005 (ip), vehicle: saline with Tween-80
[7] = dose: 50.0 mg/kg/injection, schedule: Q01DX009 (ip), vehicle: Klucel (hydroxypropylcellulose) (HPC)
[8] = dose: 100.0 mg/kg/injection, schedule: Q01DX005 (ip), vehicle: saline with Tween-80
[9] = dose: 50.0 mg/kg/injection, schedule: Q01DX005 (ip), vehicle: Klucel (hydroxypropylcellulose) (HPC)
[10] = dose: 100.0 mg/kg/injection, schedule: Q01DX005 (ip), vehicle: Klucel (hydroxypropylcellulose) (HPC)
[11] = dose: 200.0 mg/kg/injection, schedule: Q01DX005 (ip), vehicle: Klucel (hydroxypropylcellulose) (HPC)
[12] = dose: 50.0 mg/kg/injection, schedule: Q01DX009 (ip), vehicle: saline
[13] = dose: 100.0 mg/kg/injection, schedule: Q01DX009 (ip), vehicle: saline
[14] = dose: 25.0 mg/kg/injection, schedule: Q01DX005 (ip), vehicle: Klucel (hydroxypropylcellulose) (HPC)
[15] = dose: 12.5 mg/kg/injection, schedule: Q01DX005 (ip), vehicle: Klucel (hydroxypropylcellulose) (HPC)

Measured: T/C

CC1=CCCC2C1(C)CCC(C)C2(C)Cc1cc(O)ccc1O (stereo unspecified)
inactive: dose: 12.5 mg/kg/injection, schedule: Q01DX009 (ip), vehicle: saline with Tween-80 100 % of control | dose: 25.0 mg/kg/injection, schedule: Q01DX009 (ip), vehicle: saline with Tween-80 103 % of control | dose: 50.0 mg/kg/injection, schedule: Q01DX009 (ip), vehicle: saline with Tween-80 107 % of control | [1] 97 % of control | dose: 100.0 mg/kg/injection, schedule: Q01DX009 (ip), vehicle: saline with Tween-80 94 % of control | [2] 99 % of control | [3] 88 % of control

[CH3][Sn]([CH3])([O]S(=O)c1ccc(Cl)cc1)[O]S(=O)c1ccc(Cl)cc1 (stereo unspecified)
inactive: [4] 114 % of control | [5] 105 % of control

Cc1nsnc1CCO
inactive: dose: 100.0 mg/kg/injection, schedule: Q04DX002 (ip), vehicle: saline 102 % of control | dose: 200.0 mg/kg/injection, schedule: Q04DX002 (ip), vehicle: saline 104 % of control | dose: 400.0 mg/kg/injection, schedule: Q04DX002 (ip), vehicle: saline 99 % of control

Nc1cccc2c1C(=O)c1cccc(N)c1C2=O
inactive: [6] 100 % of control | [7] 97 % of control | [8] 91 % of control | dose: 100.0 mg/kg/injection, schedule: Q01DX009 (ip), vehicle: Klucel (hydroxypropylcellulose) (HPC) 100 % of control | dose: 200.0 mg/kg/injection, schedule: Q01DX005 (ip), vehicle: saline with Tween-80 100 % of control | dose: 200.0 mg/kg/injection, schedule: Q01DX009 (ip), vehicle: Klucel (hydroxypropylcellulose) (HPC) 108 % of control | dose: 400.0 mg/kg/injection, schedule: Q01DX009 (ip), vehicle: Klucel (hydroxypropylcellulose) (HPC) 104 % of control

[CH3][Sn]([CH3])([O]C(=O)c1ccc2c(c1)OCO2)[O]C(=O)c1ccc2c(c1)OCO2
inactive: [9] 112 % of control | [10] 112 % of control | [11] 109 % of control

COc1ccc(-c2c(C#N)cnc(C)c2C)c(OCc2ccccc2)c1OC
inactive: dose: 12.5 mg/kg/injection, schedule: Q01DX009 (ip), vehicle: other 106 % of control | dose: 25.0 mg/kg/injection, schedule: Q01DX009 (ip), vehicle: other 101 % of control | dose: 50.0 mg/kg/injection, schedule: Q01DX009 (ip), vehicle: other 105 % of control | dose: 100.0 mg/kg/injection, schedule: Q01DX009 (ip), vehicle: other 98 % of control | dose: 200.0 mg/kg/injection, schedule: Q01DX009 (ip), vehicle: other 92 % of control

COC[n+]1cccc(C2CCC[N+]2(C)C)c1 (stereo unspecified)
inactive: [12] 101 % of control | [13] 107 % of control | dose: 200.0 mg/kg/injection, schedule: Q01DX009 (ip), vehicle: saline 114 % of control

C=Cc1cc(=O)oc2cc(OC)ccc12
inactive: dose: 12.5 mg/kg/injection, schedule: Q01DX005 (ip), vehicle: saline with Tween-80 106 % of control and 94 % of control | dose: 25.0 mg/kg/injection, schedule: Q01DX005 (ip), vehicle: saline with Tween-80 108 % of control and 95 % of control | [6] 105 % of control and 115 % of control and 121 % of control | [8] 105 % of control

COC(=O)c1nc(=S)[nH]c(C(=O)OC)c1C(=O)c1cccc(O)c1
inactive: dose: 60.0 mg/kg/injection, schedule: Q01DX005 (ip), vehicle: suspension in saline 95 % of control | dose: 120.0 mg/kg/injection, schedule: Q01DX005 (ip), vehicle: suspension in saline 90 % of control

CS(=N)(=O)CCC(N)P(=O)(O)O (stereo unspecified)
inactive: dose: 50.0 mg/kg/injection, schedule: Q01DX005 (ip), vehicle: saline 95 % of control | dose: 100.0 mg/kg/injection, schedule: Q01DX005 (ip), vehicle: saline 92 % of control | dose: 200.0 mg/kg/injection, schedule: Q01DX005 (ip), vehicle: saline 100 % of control

COC(=O)NC1C(C)OC(OC2C/C=C(/C)C3C=CC4C(OC5CC(OC6CC(O)C(OC7CC(O)C(OC)C(C)O7)C(C)O6)C(O)C(C)O5)C(C)CC(C)C4C3(C)/C(O)=C3\C(=O)OC4(CC(C)C(CO)=CC4/C=C\2C)C3=O)CC1(C)[N+](=O)[O-] (stereo unspecified)
inactive: [9] 118 % of control and 123 % of control

CCc1cc(-n2c3c(CC)c(=O)c(CC)cc-3nc3ccccc32)cc(CC)c1O
inactive: dose: 25.0 mg/kg/injection, schedule: Q01DX009 (ip), vehicle: saline 98 % of control | [12] 109 % of control | [13] 105 % of control

Clc1ncnc2c1ncn2C1CCCO1 (stereo unspecified)
inactive: [12] 110 % of control | [13] 115 % of control

CCCN(CCC)CN1C(=O)c2ccccc2C1=O
inactive: [14] 106 % of control and 92 % of control | [9] 100 % of control and 105 % of control and 106 % of control | [10] 109 % of control and 89 % of control and 95 % of control | [11] 99 % of control and 108 % of control

COc1ccc2c(C)c[nH]c2c1
inactive: [1] 100 % of control | [2] 118 % of control | [3] 100 % of control

NC(=O)C(Cl)Cn1ccnc1 (stereo unspecified)
inactive: dose: 50.0 mg/kg/injection, schedule: Q04DX003 (ip), vehicle: saline 103 % of control | dose: 100.0 mg/kg/injection, schedule: Q04DX003 (ip), vehicle: saline 100 % of control | dose: 200.0 mg/kg/injection, schedule: Q04DX003 (ip), vehicle: saline 110 % of control

COc1ccc2ncc(COC(=O)NC3CCCCC3)c(COC(=O)NC3CCCCC3)c2c1
inactive: [15] 91 % of control | [14] 94 % of control | [9] 88 % of control

CN(C)c1nnn(Cc2ccccc2)n1
inactive: [9] 101 % of control | [10] 97 % of control | [11] 104 % of control

C/C(=N\N=c1\sc2ccccc2n1CC(=O)O)c1ccc(C)cc1
inactive: [1] 102 % of control | [2] 106 % of control | [3] 101 % of control

Clc1nc(Cl)nc(Nc2ccccc2Cl)n1
inactive: dose: 6.25 mg/kg/injection, schedule: Q01DX009 (ip), vehicle: Klucel (hydroxypropylcellulose) (HPC) 96 % of control | dose: 12.5 mg/kg/injection, schedule: Q01DX009 (ip), vehicle: Klucel (hydroxypropylcellulose) (HPC) 99 % of control | dose: 25.0 mg/kg/injection, schedule: Q01DX009 (ip), vehicle: Klucel (hydroxypropylcellulose) (HPC) 96 % of control | [7] 99 % of control

CC1COS(=O)O1 (stereo unspecified)
inactive: dose: 20.0 mg/kg/injection, schedule: Q01DX009 (ip), vehicle: saline sonified 109 % of control | dose: 40.0 mg/kg/injection, schedule: Q01DX009 (ip), vehicle: saline sonified 109 % of control

CC1(C)CC(NCc2ccccc2)=CC(=S)N1
inactive: [9] 100 % of control | [10] 103 % of control | [11] 93 % of control

CC1(C)CN(C(C)(C)C)COC1OC1OCN(C(C)(C)C)CC1(C)C (stereo unspecified)
inactive: dose: 37.5 mg/kg/injection, schedule: Q01DX009 (ip), vehicle: saline with Tween-80 118 % of control | dose: 75.0 mg/kg/injection, schedule: Q01DX009 (ip), vehicle: saline with Tween-80 109 % of control | dose: 150.0 mg/kg/injection, schedule: Q01DX009 (ip), vehicle: saline with Tween-80 119 % of control

CCCCCCCN(CCCCCCC)CC(O)c1cc2ccc(Cl)cc2nc1-c1ccc(Cl)cc1 (stereo unspecified)
inactive: dose: 100.0 mg/kg/injection, schedule: Q01DX001 (ip), vehicle: saline sonified 90 % of control | dose: 200.0 mg/kg/injection, schedule: Q01DX001 (ip), vehicle: saline sonified 90 % of control | dose: 400.0 mg/kg/injection, schedule: Q01DX001 (ip), vehicle: saline sonified 104 % of control

CC1C(=O)C23CC1CCC2C12COC(O)C1C(C)(C)C(O)CC2OC3=O (stereo unspecified)
inactive: [15] 100 % of control | [14] 94 % of control | [9] 100 % of control | dose: 61.5 mg/kg/injection, schedule: Q01DX005 (ip), vehicle: Klucel (hydroxypropylcellulose) (HPC) 96 % of control | [10] 102 % of control | dose: 123.0 mg/kg/injection, schedule: Q01DX005 (ip), vehicle: Klucel (hydroxypropylcellulose) (HPC) 106 % of control | dose: 246.0 mg/kg/injection, schedule: Q01DX005 (ip), vehicle: Klucel (hydroxypropylcellulose) (HPC) 98 % of control

O=C(OC1(c2ccc3ccccc3c2)OC(=O)c2ccccc21)c1ccccc1C(=O)c1cccc2ccccc12 (stereo unspecified)
inactive: [4] 92 % of control | [5] 91 % of control | dose: 400.0 mg/kg/injection, schedule: Q01DX001 (ip), vehicle: Klucel (hydroxypropylcellulose) (HPC) 91 % of control

O=S(=O)(Nc1ccc(Cl)cc1C(F)(F)F)c1ccc(F)cc1
inactive: dose: 60.0 mg/kg/injection, schedule: Q01DX005 (ip), vehicle: saline with Tween-80 100 % of control | dose: 120.0 mg/kg/injection, schedule: Q01DX005 (ip), vehicle: saline with Tween-80 110 % of control
